Results on 19 molecules are retold here after patent US20260216347A1, “Substituted Imidazo-Based Compounds as Ligand Directed Degraders of IRAK3” (Celgene Corporation, priority 2022, published 2026).

This assay concerns the target T1, IRAK3 (Homo sapiens, UniProt Q9Y616).
T1 construct: IRAK Endogenous HTRF Degradation Assay; endogenous in cells
T1 sequence (Q9Y616 1-596): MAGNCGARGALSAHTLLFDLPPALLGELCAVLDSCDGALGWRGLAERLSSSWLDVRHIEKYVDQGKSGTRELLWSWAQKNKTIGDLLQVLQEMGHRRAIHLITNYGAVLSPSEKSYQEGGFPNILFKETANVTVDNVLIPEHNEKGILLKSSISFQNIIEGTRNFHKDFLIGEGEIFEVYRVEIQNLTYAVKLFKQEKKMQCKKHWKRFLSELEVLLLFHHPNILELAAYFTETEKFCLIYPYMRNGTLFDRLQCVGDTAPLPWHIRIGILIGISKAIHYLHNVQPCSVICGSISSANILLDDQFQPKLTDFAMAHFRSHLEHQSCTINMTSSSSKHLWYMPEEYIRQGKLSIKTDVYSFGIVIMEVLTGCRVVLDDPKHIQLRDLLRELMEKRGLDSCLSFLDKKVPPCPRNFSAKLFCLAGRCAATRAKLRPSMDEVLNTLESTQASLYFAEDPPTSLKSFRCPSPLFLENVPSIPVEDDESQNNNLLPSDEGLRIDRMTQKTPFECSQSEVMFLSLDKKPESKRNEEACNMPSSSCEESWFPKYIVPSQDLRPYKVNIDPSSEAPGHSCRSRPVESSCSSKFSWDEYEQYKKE
Put plainly: IRAK3 biochemical binding assay (LanthaScreen Eu Kinase Binding, TR-FRET). The protocol: Example B3. IRAK3 Biochemical Binding Assay
The LanthaScreen® Eu Kinase Binding assay was performed as described by the vendor (ThermoFisher Scientific Waltham, MA). Briefly, 100× solutions of compound were prepared in DMSO via serial dilution of the 10 mM stock solution in a 384-well reagent plate using 3-fold intervals to achieve final concentrations. 1 μL of the compound dilution series were added to the corresponding wells of a 384-well reagent plate containing 32.3 μL of 1× buffer (50 mM HEPES pH 7.4, […], 1 mM EGTA, 0.01% Brij-35). 5 μL of the buffer diluted compounds were transferred to the corresponding wells of a 384-well assay plate. 5 μL of 3× tracer was transferred to each well of the assay plate for a final tracer concentration of 10 nM. Finally, 5 μL of the 3×Eu-Anti-GST and IRAK3 mix was transferred to each well for a final concentration of 2 nM and 10 nM respectively. Reactions were allowed to incubate for 1 hour at room temperature. TR-FRET signal of the interaction (λex340/λem 665/λem 615) was read at room temperature with a delay time of 100 ρs and an integration time of 200 ρs using an Envision plate reader. Background corrected emission signal ratios at each compound concentration were used to calculate percentage of inhibition (% Inhibition). Plots of % Inhibition versus inhibitor concentrations were fit according to a dose-response equation (Eq. 1) to generate IC50 and Hill slope values using Dotmatics software (Dotmatics, Bishops Stortford, Hertfordshire, England).
Using these assays, IC50, Dmax, EC50, and DC50 values of the following compounds were determined. Dmax is defined as the maximum percent degradation achieved and DC50 is the concentration at which 50% degradation is achieved.
A general note: Time-resolved FRET reads energy transfer from a long-lived donor to a nearby acceptor.
`Cc1cc(-c2cnc(Nc3cnn(C4CCN(CCN5CCN(c6ccc(-n7cc(F)c(=O)[nH]c7=O)cc6)CC5)CC4)c3)c3nccn23)c(F)cc1F` [Compound 110, 1-(4-(4-(2-(4-(4-((5-(2,4-difluoro-5-methylphenyl)imdazo [1,2-a]pyrazin-8-yl)amino)-1H-pyrazol-1-yl)piperidin-1-yl)ethyl)piperazin-1-yl)phenyl)-5-fluoropyrimidine-2,4(1H,3H)-dione] displayed an IC50 of 0.86 nM.
For `O=C1CCC(c2ccc(N3CCN(CCN4CCC(n5cc(Nc6ncc(-c7ccccc7)n7ccnc67)cn5)CC4)CC3)cc2)C(=O)N1` (stereo not shown) [Compound 88, 3-(4-(4-(2-(4-(4-((5-phenylimidazo[1,2-a]pyrazin-8-yl)amino)-1H-pyrazol-1-yl)piperidin-1-yl)ethyl)piperazin-1-yl)phenyl) piperidine-2,6-dione] the value was 16 nM; for `Cc1cc(-c2cnc(Nc3cnn([C@H]4CC[C@H](CCN5CCN(c6cccc7c(C8CCC(=O)NC8=O)nn(C)c67)CC5)CC4)c3)c3nccn23)c(F)cc1F` (stereo partly drawn) [Compound 117, 3-(7-(4-(2-((trans)-4-(4-((5-(2,4-difluoro-5-methylphenyl)imidazo[1,2-a]pyrazin-8-yl)amino)-1H-pyrazol-1-yl)cyclohexyl)ethyl)piperazin-1-yl)-1-methyl-1H-indazol-3-yl)piperidine-2,6-dione], 1 nM.
For `O=C1CCC(c2ccc(N3CCN(CCN4CCC(n5cc(Nc6ncc(-c7cnn(C8CC8)c7)n7ccnc67)cn5)CC4)CC3)cc2)C(=O)N1` (stereo not shown) [Compound 119, 3-(4-(4-(2-(4-(4-((5-(1-cyclopropyl-1H-pyrazol-4-yl)imidazo[1,2-a]pyrazin-8-yl)amino)-1H-pyrazol-1-yl)piperidin-1-yl)ethyl)piperazin-1-yl)phenyl) piperidine-2,6-dione] the value was 1.7 nM; for `O=C1CCC(c2ccc(N3CCN(CC[C@H]4CC[C@H](n5cc(Nc6ncc(C78CCCC7C8)n7ccnc67)cn5)CC4)CC3)cc2)C(=O)N1` (stereo partly shown) [Compound 100], 4 nM; for `Cc1cc(-c2cnc(Nc3cnn([C@H]4CC[C@@H](CCN5CC6(C5)CN(c5ccc(C7CCC(=O)NC7=O)cc5)C6)CC4)c3)c3nccn23)c(F)cc1F` (stereo partly shown) [Compound 101], 7.6 nM.
Molecule `Cn1nc(C2CCC(=O)NC2=O)c2ccc(N3CCN(CCN4CCC(n5cc(Nc6ncc(C7CC7)n7ccnc67)cn5)CC4)CC3)cc21` (stereo not shown) [Compound 115, 3-(6-(4-(2-(4-(4-((5-cyclopropylimidazo[1,2-a]pyrazin-8-yl)amino)-1H-pyrazol-1-yl)piperidin-1-yl)ethyl)piperazin-1-yl)-1-methyl-1H-indazol-3-yl)piperidine-2,6-dione] yielded an IC50 of 25 nM.
As for `Cc1cc(-c2cnc(Nc3cnn([C@H]4C[C@@H](CCN5CCN(c6ccc(C7CCC(=O)NC7=O)cc6)CC5)C4)c3)c3nccn23)c(F)cc1F` (stereo partly drawn) [Compound 96, 3-(4-(4-(2-((cis)-3-(4-((5-(2,4-difluoro-5-methylphenyl)imidazo[1,2-a]pyrazin-8-yl)amino)-1H-pyrazol-1-yl)cyclobutyl)ethyl)piperazin-1-yl)phenyl)piperidine-2,6-dione], the figure is 0.22 nM.
Regarding `O=C1CCC(c2ccc(N3CCN(CC[C@H]4CC[C@H](n5cc(Nc6ncc(-c7cn[nH]c7)n7ccnc67)cn5)CC4)CC3)cc2)C(=O)N1` (stereo partly drawn) [Compound 120, 3-(4-(4-(2-((trans)-4-(4-((5-(1H-pyrazol-4-yl)imidazo[1,2-a]pyrazin-8-yl)amino)-1H-pyrazol-1-yl)cyclohexyl)ethyl)piperazin-1-yl)phenyl) piperidine-2,6-dione], the IC50 was 1.5 nM.
As for `Cc1cc(-c2cnc(Nc3cnn([C@H]4CC[C@H](CCN5CCN(c6ccc7c(C8CCC(=O)NC8=O)nn(C)c7c6)CC5)CC4)c3)c3nccn23)c(F)cc1F` (stereo partly drawn) [Compound 105, 3-(6-(4-(2-((trans)-4-(4-((5-(2,4-difluoro-5-methylphenyl)imidazo[1,2-a]pyrazin-8-yl)amino)-1H-pyrazol-1-yl)cyclohexyl)ethyl)piperazin-1-yl)-1-methyl-1H-indazol-3-yl)piperidine-2,6-dione], the IC50 stood at 0.18 nM.
As to `Cc1cc(-c2cnc(Nc3cnn([C@H]4CC[C@H](CCN5CCC(c6ccc(C7CCC(=O)NC7=O)cc6)CC5)CC4)c3)c3nccn23)c(F)cc1F` (stereo partly drawn) [Compound 95, 3-(4-(1-(2-((trans)-4-(4-((5-(2,4-difluoro-5-methylphenyl)imidazo[1,2-a]pyrazin-8-yl)amino)-1H-pyrazol-1-yl)cyclohexyl)ethyl)piperidin-4-yl)phenyl) piperidine-2,6-dione], the IC50 turned out to be 15 nM.
The molecule `Cc1cc(-c2cnc(Nc3cnn([C@H]4CC[C@H](CCN5CC6(C5)CN(c5ccc(C7CCC(=O)NC7=O)cc5)C6)CC4)c3)c3nccn23)c(F)cc1F` (stereo partly shown) [Compound 104] displayed a half-inhibitory concentration (IC50) of 0.3 nM.
The molecule `O=C1CCC(c2ccc(N3CCN(CCN4CCC(n5cc(Nc6ncc(-c7cnn8c7CCCC8)n7ccnc67)cn5)CC4)CC3)cc2)C(=O)N1` (stereo not shown) [Compound 114, 3-(4-(4-(2-(4-(4-((5-(4,5,6,7-tetrahydropyrazolo[1,5-a]pyridin-3-yl)imidazo[1,2-a]pyrazin-8-y1)amino)-1H-pyrazol-1-yl)piperidin-1-yl)ethyl)piperazin-1-y1)phenyl)piperidine-2,6-dione] gave an IC50 of 0.92 nM.
For `Cc1cc(-c2cnc(Nc3cnn(C4CCN(CCN5CCC(n6cc(N7CCC(=O)NC7=O)cn6)CC5)CC4)c3)c3nccn23)c(F)cc1F` [Compound 116, 1-(1-(1-(2-(4-(4-((5-(2,4-difluoro-5-methylphenyl)imdazo [1,2-a]pyrazin-8-yl)amino)-1H-pyrazol-1-yl)piperidin-1-yl)ethyl)piperidin-4-yl)-1H-pyrazol-4-yl) dihydropyrimidine-2,4(1H,3H)-dione] the value was 0.12 nM; for `Cc1cc(-c2cnc(Nc3cnn([C@H]4C[C@H](CN5CCN(c6ccc(C7CCC(=O)NC7=O)cc6)CC5)C4)c3)c3nccn23)c(F)cc1F` (stereo partly shown) [Compound 99], 0.44 nM.
`O=C1CCC(c2ccc(N3CCN(CCN4CCC(n5cc(Nc6ncc(-c7ccc8c(c7)CC8)n7ccnc67)cn5)CC4)CC3)cc2)C(=O)N1` (stereo not shown) [Compound 85, 3-(4-(4-(2-(4-(4-((5-(bicyclo[4.2.0]octa-1(6),2,4-trien-3-yl)imidazo[1,2-a]pyrazin-8-yl)amino)-1H-pyrazol-1-yl)piperidin-1-yl)ethyl)piperazin-1-yl)phenyl) piperidine-2,6-dione]: the IC50 was determined as 25 nM.
`CN1CCOc2cc(F)c(-c3cnc(Nc4cnn(C5CCN(CCN6CCN(c7ccc(C8CCC(=O)NC8=O)cc7)CC6)CC5)c4)c4nccn34)cc21` (stereo not shown) [Compound 98, 3-(4-(4-(2-(4-(4-((5-(7-fluoro-4-methyl-3,4-dihydro-2H-benzo[b][1,4]oxazin-6-yl)imidazo[1,2-a]pyrazin-8-yl)amino)-1H-pyrazol-1-yl)piperidin-1-yl)ethyl)piperazin-1-yl)phenyl) piperidine-2,6-dione]: the IC50 came to 0.08 nM.
`Cc1cc(-c2ccc(Nc3cnn([C@H]4CC[C@@H](CCN5CCN(c6ccc(C7CCC(=O)NC7=O)cc6)CC5)CC4)c3)c3nccn23)c(F)cc1F` (stereo partly shown) [Compound 103] yielded an IC50 of 2 nM.
`Cc1cc(-c2cnc(Nc3cnn([C@H]4CCCN(CCN5CCN(c6ccc(C7CCC(=O)NC7=O)cc6)CC5)CC4)c3)c3nccn23)c(F)cc1F` (single isomer, unassigned) [Compound 111] yielded an IC50 of 0.05 nM.

For orientation: IC50 means the concentration that inhibits the measured activity by half. Higher therefore signals weaker potency.
